Measurements as given in US10669238B2, “Irreversible bruton's tyrosine kinase inhibitor” (HEFEI INSTITUTES OF PHYSICAL SCIENCE, CHINESE ACADEMY OF …, priority 2016, dated 2020).

Legend:
[1] = system: phosphorylation of tyrosine Y223 on Btk; experiment: Effects on BTK Y223 and downstream signaling pathway proteins in cells (anti-IgM stimulation); assay type: cell-based, human; details: Compound 1 in MEC-2, Pfeiffer, Ramos, TMD8, U2932; Compound 35 in MEC-1; 4 hours, then anti-IgM 10 mins
Description: By assaying a number of cellular biochemical and functional endpoints, the properties of the compounds were further characterized. […] In this experiment, PC132765 (purchased from Shanghai Haoyuan Chemexpress Co., Ltd.), CGI11746 (purchased from Shanghai Haoyuan Chemexpress Co., Ltd.) and Compound 6 (prepared herein) were used as control (see FIGS. 2a-2f).
Effects of the compounds on phosphorylation of BTKY223, BTKY551, PLCγ1Y783, PLCγ2Y759, PLCγ2Y1217, P—NF-κB P65, P-AKT Ser473, Erk Thr202/Tyr204 and the like were determined (FIGS. 2a-2f).

BTK C481S = molecular target: T1, BTK C481S (Homo sapiens, UniProt Q06187, C481S); experiment: Btk cell-free kinase assay, BTK C481S mutant protein; assay type: biochemical; details: compound 30 mins at room temperature, then 100 μM ATP 20 min at 37° C.
T1 construct: made in house; host or cells: SF9 insect cells
T1 sequence (Q06187 whole entry C481S): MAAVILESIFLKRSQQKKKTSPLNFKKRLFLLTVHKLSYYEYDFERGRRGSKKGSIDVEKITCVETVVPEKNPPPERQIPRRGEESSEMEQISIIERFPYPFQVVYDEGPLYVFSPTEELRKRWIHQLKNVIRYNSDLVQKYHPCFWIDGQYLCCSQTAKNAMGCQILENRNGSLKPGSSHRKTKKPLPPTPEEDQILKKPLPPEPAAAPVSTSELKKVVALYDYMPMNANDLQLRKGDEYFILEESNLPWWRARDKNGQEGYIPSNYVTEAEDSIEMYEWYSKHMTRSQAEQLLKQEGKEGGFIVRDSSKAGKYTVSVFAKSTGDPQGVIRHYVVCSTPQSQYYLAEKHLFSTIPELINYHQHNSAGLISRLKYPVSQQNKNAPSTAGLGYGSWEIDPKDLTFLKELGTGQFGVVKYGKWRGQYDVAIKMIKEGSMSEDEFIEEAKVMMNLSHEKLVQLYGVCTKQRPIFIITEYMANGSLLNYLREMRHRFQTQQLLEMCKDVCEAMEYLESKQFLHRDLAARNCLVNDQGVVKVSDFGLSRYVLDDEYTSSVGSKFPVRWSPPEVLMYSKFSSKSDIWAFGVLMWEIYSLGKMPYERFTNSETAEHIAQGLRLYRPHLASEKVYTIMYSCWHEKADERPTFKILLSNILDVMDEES
Description: The BTK wild-type plasmid and the BTK mutant plasmid (C481S) were respectively transfected into SF9 cells (purchased from invitrogen), and after three generations of virus amplification, the P3-generation virus was used to transfect SF9 cells which were collected after 72-hour culture to obtain protein BTK WT and protein BTK C481S, which were then purified.

[2] = system: diffuse large B-cell lymphoma cell lines Pfeiffer; experiment: Cell proliferation (Cell Titer-Glo), Pfeiffer; assay type: cell-based; details: Homo sapiens, 72 hours, read-out: Effects on cell proliferation (GI50)
Description: (§1) The selectivity of Compound 1 in inhibiting the proliferation of cancer cells was further evaluated by testing the effect of Btk inhibitors on the growth of cancer cells. […]
(§2) In this example different concentrations (0.000508 μM, 0.00152 μM, 0.00457 μM, 0.0137 μM, 0.0411 μM, 0.123 μM, 0.370 μM, 1.11 μM, 3.33 μM, 10 μM) of Compound 1 and Compound 6 were respectively added into the above cells which were then cultured for 72 hours. The number of viable cells was determined via quantitative determination of ATP in living cells by using Cell Titer-Glo® (Promega, the USA) Chemical Luminescent Cell Viability Assay kit.

[3] = system: U2932 (B-cell lymphoma cells); experiment: Cell apoptosis (PARP and Caspase 3 cleavage) in U2932; assay type: cell-based
Description: (§3) Various concentrations (0.5 μM, 1 μM, 5 μM, 10 μM) of Compound 1 was administered to Pfeiffer (human diffuse large cell lymphoma B lymphocytes, purchased from Cobioer Biosciences Co., LTD (Nanjing)) and U2932 (B-cell lymphoma cells, purchased from ATCC) in order to confirm whether cell death after the administration was caused by apoptosis or necrosis. After 48 hours, effects of Compound 1 on protein cleavage of the DNA repairase poly(ADP-ribose) polymerase (PARP) and Caspase (cysteinyl aspartate-specific proteinase) 3 that were closely related to cell apoptosis was examined.

[4] = molecular target: T2, TEL-EGFR-BaF3 (stably expressing TEL-EGFR activated kinase) (Homo sapiens, UniProt P00533); experiment: Cell proliferation (Cell Titer-Glo), BaF3-tel-EGFR; assay type: cell-based; details: BaF3-tel-EGFR (mouse BaF3 cells), 72 hours; read-out: Effects on cell proliferation (GI50)
T2 construct: expressed in transfected cells; host or cells: mouse BaF3 cells, retroviral MSCV-Puro; the other entry of the earlier key: ETV6 (P41212, Transcription factor ETV6)
T2 sequence (P00533 712-979 limits assumed): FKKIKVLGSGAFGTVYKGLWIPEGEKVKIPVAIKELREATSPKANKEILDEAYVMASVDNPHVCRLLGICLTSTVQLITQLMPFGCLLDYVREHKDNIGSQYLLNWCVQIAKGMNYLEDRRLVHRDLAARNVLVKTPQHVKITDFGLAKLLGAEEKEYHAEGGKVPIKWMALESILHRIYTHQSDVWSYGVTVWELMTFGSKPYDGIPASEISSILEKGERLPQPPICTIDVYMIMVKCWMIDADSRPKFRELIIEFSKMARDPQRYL
Description: as §1, §2

[5] = system: Pfeiffer (human diffuse large cell lymphoma B lymphocytes); experiment: Cell apoptosis (PARP and Caspase 3 cleavage) in Pfeiffer; assay type: cell-based; details: 48 hours
Description: as §3

[6] = system: Pfeiffer (human diffuse large cell lymphoma B lymphocytes); experiment: Cell cycle distribution by flow cytometry in Pfeiffer; assay type: cell-based; details: 10 μM, 48 hours
Description: Effect of Compound 1 on cell cycle distribution was examined respectively in Pfeiffer (human diffuse large cell lymphoma B lymphocytes, purchased from Cobioer Biosciences Co., LTD (Nanjing)) and U2932 (B-cell lymphoma cells, purchased from ATCC) cells in order to study the growth cycle to which the cells were blocked upon compound administration. The above cells were treated with various concentrations (0.5 μM, 1 μM, 5 μM, 10 μM) of Compound 1, 10 μM of PC132765 and 10 μM of Compound 6 (FIG. 4a) or 1 μM of Compound 6 (FIG. 4b) for 48 hours, and then cells were collected and washed twice with 1×PBS buffer, and fixed with 75% ethanol at −20° C. for 24 hours, washed again with 1×PBS buffer twice, followed by addition of 0.5 mL 1×PBS buffer and 0.5 mL of PI dyeing liquor (purchased from BD Bioscience, USA), and then the cells were placed in the dark at 37° C. for dyeing 15 minutes and the cell cycle distribution was detected by flow cytometry (BD FACS Calibur).
Experiments shown in FIGS. 4a-4b reflected that Compound 1 influenced the cell cycle of both two cell strains.

Row | SMILES | phosphorylation of tyrosine Y223 on Btk [1] | EC50 (BTK C481S; read-out: EC50 against BTK C481S) [µM] | GI50 [2] [µM] | cleavage of DNA repairase poly(ADP-ribose) polymerase (PARP) ([3]; U2932, 10 μM, 48 hours) | cell apoptosis ([3]; U2932, 48 hours) | GI50 [4] [µM] | cleavage of DNA repairase poly(ADP-ribose) polymerase (PARP) ([5]; 10 μM) | cell apoptosis [5] | effect on cell cycle [6] | inhibitory effects against BTK C481S (BTK C481S)
1 | C=CC(=O)Nc1cc(Nc2cc(-c3cccc(NC(=O)c4ccc(C(C)(C)C)cc4)c3C)cn(C)c2=O)ccc1C(=O)N1CCOCC1 [Compound 1, N-(3-(5-((3-acrylamide-4-(morpholin-4-carbonyl)phenyl)amino)-1-methyl-6-oxo-1,6-dihydropyridin-3-yl)-2-methylphenyl)-4-(tert-butyl)benzamide] | selectively and significantly inhibit phosphorylation of tyrosine Y223 on Btk | 0.185 | 4.5 | significant cleavage | could lead to cell apoptosis | 5.3 | significant cleavage | could lead to cell apoptosis | significant cell cycle arrest in G0-G1 | 
2 | CCC(=O)Nc1cc(Nc2cc(-c3cccc(NC(=O)c4ccc(C(C)(C)C)cc4)c3C)cn(C)c2=O)ccc1C(=O)N1CCOCC1 [Compound 6, N-(3-(5-((3-propanamide-4-(morpholin-4-carbonyl)phenyl)amino)-1-methyl-6-oxo-1,6-dihydropyridin-3-yl)-2-methylphenyl)-4-(tert-butyl)benzamide] |  |  | > 10 |  |  | 7.6 |  |  |  | no inhibitory effects
